Experimental data reported in patent US12221422B2, “Compounds and their use for the treatment of alpha1-antitrypsin deficiency” (CENTESSA PHARMACEUTICALS (UK) LIMITED, priority 2018, dated 2025).

Assays:
[1] = Plasma protein binding, rat plasma (rapid equilibrium dialysis); type: in vitro ADME; details: 37° C.
Procedure: (§1) The extent to which compounds of the invention bound to plasma proteins such as albumin and alpha-1 acid glycoprotein within human, rat or mouse plasma was determined by rapid equilibrium dialysis. Compounds were incubated at 5 μM for 4 hours at 37° C. Plasma protein binding for N,N-dimethyl-4-((6-oxopyrimidin-1(6H)-yl)methyl)benzamide in mouse plasma was 37.3%, in rat plasma was 14.8% and in human plasma was 30.6%.

[2] = target: T1, human M A1AT (Homo sapiens, UniProt P01009); assay: A1AT cell secretion assay using HEK-M cells (ELISA); type: cell-based; details: 10 μM, 48 h
T1 construct: expressed in transfected cells; host or cells: HEK-M (HEK-EBNA cells containing the M A1AT plasmid)
T1 sequence (P01009 25-418): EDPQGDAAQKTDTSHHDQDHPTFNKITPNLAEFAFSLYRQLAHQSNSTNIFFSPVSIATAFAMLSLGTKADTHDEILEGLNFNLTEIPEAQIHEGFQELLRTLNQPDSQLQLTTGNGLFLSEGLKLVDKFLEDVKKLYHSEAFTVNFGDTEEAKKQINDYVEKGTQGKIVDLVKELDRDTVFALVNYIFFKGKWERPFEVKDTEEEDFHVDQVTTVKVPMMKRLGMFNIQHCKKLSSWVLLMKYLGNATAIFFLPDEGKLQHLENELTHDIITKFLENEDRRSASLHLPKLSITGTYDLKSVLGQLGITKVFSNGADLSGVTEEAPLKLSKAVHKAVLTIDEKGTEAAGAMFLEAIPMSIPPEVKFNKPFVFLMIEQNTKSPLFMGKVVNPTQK
Procedure: HEK-M cells, a human embryonic kidney cell line stably transfected with the human M A1AT gene, were plated into 96 well plates (3.0×10^5 cells/ml with 200 μl of media/well) overnight at 37° C. in a humidified atmosphere containing 5% CO2. Following incubation cells were washed with 200 μl serum-free media three times and media was replaced with serum-free media containing either vehicle, 10 μM suberanilohydroxamic acid (SAHA) or a compound of the invention (at 10 μM) in replicates of six for 48 h in a 37° C. incubator in a final volume of 200 μl. […]
(§2) Briefly, a 96 well plate was coated with human A1AT capture antibody overnight at room temperature (1:180 dilution from stock, 100 μl final volume/well). […] After which, 50 μl stop solution (2M H2SO4) was added and optical density (OD) of each well was read at 450 nm with 570 nm blank subtracted from each well using a microplate reader. A 4 parameter logistic curve was constructed using GraphPad Prism 7 and A1AT concentrations were determined in each sample by interpolation from a standard curve and multiplying by the appropriate dilution factor.
The amount of A1AT secreted from transfected HEK-EBNA cells into the media was measured by ELISA. […]

[3] = target: T2, human Siiyama A1AT (Homo sapiens, UniProt P01009, S77F); assay: A1AT cell secretion assay using HEK-Siiyama cells (ELISA); type: cell-based; details: 1 or 10 μM, 48 h
T2 construct: expressed in transfected cells; host or cells: HEK-Siiyama (HEK-EBNA cells containing the Siiyama A1AT plasmid)
T2 sequence (P01009 25-418 S77F): as the sequence (P01009 25-418) above, with S53F counted along it
Procedure: HEK-Siiyama cells, a human embryonic kidney cell line stably transfected with the human Siiyama A1AT gene, were plated into 96 well plates (3.0×10^5 cells/ml with 200 μl of media/well) overnight at 37° C. in a humidified atmosphere containing 5% CO2. Following incubation cells were washed with 200 μl serum-free media three times and media was replaced with serum-free media containing either vehicle, 10 μM suberanilohydroxamic acid (SAHA) or a compound of the invention (at 1 or 10 μM) in replicates of eight for 48 h in a 37° C. incubator in a final volume of 200 μl. […]
as §2
The amount of human A1AT secreted from transfected HEK-EBNA cells into the media was measured by ELISA. […]

[4] = Plasma protein binding, human plasma (rapid equilibrium dialysis); type: in vitro ADME; details: 37° C.
Procedure: as §1

[5] = Plasma protein binding, mouse plasma (rapid equilibrium dialysis); type: in vitro ADME; details: 37° C.
Procedure: as §1

[6] = system: TA98, TA100, WP2 uvrA, TA1535, TA1537 bacterial strains; assay: Bacterial reverse mutation test; details: up to 5000 μg/plate, presence and absence of S-9 mix
Procedure: The purpose of the bacterial reverse mutation test is to assess the mutagenic potential of the test item by its ability to revert the specified bacterial strains from auxotrophic growth to prototrophy. The assay detects point (gene) mutations at specific histidine or tryptophan loci, which may be induced by compounds that cause base pair substitutions or frameshift mutations in the genome of these organisms. Assays were performed in the presence and absence of an exogenous mammalian oxidative metabolising system (S-9 mix, a liver post-mitochondrial fraction derived from the livers of Aroclor 1254 treated rats), to mimic mammalian metabolism. The test methodology was based on established procedures for bacterial mutagenicity testing.
N,N-dimethyl-4-((6-oxopyrimidin-1(6H)-yl)methyl)benzamide was tested up to the guideline regulatory maximum dose level of 5000 μg/plate in all strains in the presence and absence of […].
There were no increases in revertant numbers, greater than the defined fold-increases (to twice the relevant negative control value for TA98, TA100 or WP2 uvrA or three times the relevant negative control value for TA1535 or TA1537), in any strain at any dose level of N,N-dimethyl-4-((6-oxopyrimidin-1(6H)-yl)methyl)benzamide, in the presence or absence of S-9 mix, under plate incorporation conditions.

In the case of CN(C)C(=O)c1ccc(Cn2cnccc2=O)cc1 [N,N-dimethyl-4-((6-oxopyrimidin-1(6H)-yl)methyl)benzamide], the fraction unbound at 4 h, 5 μM [1] was 0.852, the “secretion of M A1AT as measured by ELISA” value [2] was “does not stimulate secretion of M A1AT” and the “secretion of Siiyama A1AT as measured by ELISA” value [3] was “does not stimulate secretion of Siiyama A1AT”. The fraction unbound at 4 h, 5 μM [4] was 0.694, the fraction unbound at 4 h, 5 μM [5] was 0.627 and the “mutagenicity (revertant numbers)” value ([6]; all strains, plate incorporation) was “not mutagenic”. For the same compound, the “toxicity to bacterial strains” value [6] was “no evidence of toxicity”.
